In patent US20210355547A1, “NON-INVASIVE URINARY BIOMARKERS FOR THE DETECTION OF UROTHELIAL CARCINOMA OF THE BLADDER” (THE JOHNS HOPKINS UNIVERSITY, priority 2018, published 2021):

Columns and labels:
[1] = system: spheroid CD24-sh and CD24-Ctrl BFTC 905, BFTC 909, and 5637 cells; test: Cell viability assay (MTT assay) after cisplatin treatment; format: cell-based; details: 5 μM CDDP, 72 h; spheroid CD24-sh vs spheroid CD24-Ctrl cells
Protocol: (§1) FIG. 2A-2E. The chemoresistant and tumorigenic abilities attenuated by CD24 knockdown in BFTC 905, BFTC 909, and 5637 cell lines. (FIG. 2A) Cell viability after 5 μM cisplatin (CDDP) treatment for 72 h in the spheroid CD24-sh cells, as measured by MTT assay. Cell viability was expressed as the ratio of absorbance values of the spheroid CD24-sh cells related to the spheroid CD24-Ctrl cells considered as 1.0. Data are from three independent experiments. (FIG. 2B) An apoptosis assay of spheroid CD24-sh cells treated with 5 μM CDDP for 72 h. Upper, representative images of early apoptosis (bottom right quadrant) and late apoptosis (top right quadrant); Lower, percentage of apoptotic cells. (FIG. 2C) Western blotting analysis of ABCG2, YAP1, and CD133 in stable CD24-sh and CD24-Ctrl cells. (FIG. 2D) Limiting-dilution xenograft assays in stable spheroid CD24-sh BFTC 909 (upper) and BFTC 905 (lower) cells. Tumor growth was measured after subcutaneous injection of serially diluted spheroid cells (1×10^4, 1×10^3, or 1×10^2 cells per flank) into both flanks of NSG mice (five mice per group). SP, Spheroid. […]
Cell viability assay (MTT assay). Cell viability was measured using the 3-(4, 5-dimethyl thiazol-2-yl)-2, 5-diphenyltetrazolium bromide (MTT) Proliferation Assay Kit (ATCC; Manassas, Va., USA) according to the manufacturer's protocol. […]

[2] = system: spheroid CD24-sh and CD24-Ctrl BFTC 905, BFTC 909, and 5637 cells; test: Apoptosis assay (PE Annexin V / 7-AAD flow cytometry) after CDDP; format: cell-based; details: 5 μM CDDP, 72 h; spheroid cells with CD24 knockdown
Protocol: as §1, with “Spheroid. (FIG. 2E) Tumor initiation frequency after the xenotransplantation of spheroid CD24-sh BFTC 909 (upper) and BFTC 905 (lower) cells.” for “Spheroid.”

Compound: N.N.[Cl][Pt][Cl] [cisplatin]
- sensitivity of spheroid cells to CDDP treatment (cell viability) [1]: spheroid CD24-sh cells were more sensitive to CDDP treatment than spheroid CD24-Ctrl cells
- anti-apoptotic ability against CDDP treatment [2]: CD24 knockdown significantly attenuated the anti-apoptotic ability against CDDP treatment
